{
  "source": "patent US20210393932A1",
  "about": "“DERMAL PATCHES AND GLASS SWABS FOR APPLICATION OF TOPICAL IMMUNOSENSITIZERS” (Squarex, LLC, priority 2020, published 2021)",
  "key": {"pig skin": {"test_system": "pig skin", "assay": "Skin irritation (erythema, edema) after SADBE dermal patches in swine", "format": "in vivo", "settings": "for Average high erythema score: across all patches, doses and exposure times", "description": "An additional purpose was to assess immediate and delayed skin irritation, including erythema and edema on the pig skin over 4 weeks after dosing. Skin irritation was scored as in Table 5. [table] It was scored 3 times per week at each patch application site for four weeks. The scores shown are the erythema score at the time of patch removal, and then the highest of the 3 scores taken each week for each patch site."}, "[1]": {"test_system": "herpes labialis outbreaks", "assay": "Placebo-controlled Phase 1 clinical trial of SADBE in subjects with frequent herpes labialis outbreaks", "format": "in vivo, human", "method": "Methods This exploratory, double-blind, randomized placebo-controlled study was conducted between November 2013 and September 2015 at Massachusetts General Hospital. Healthy adults, ages 18 to 69 years, who self-reported having 6 or more episodes of herpes labialis in the previous 12 months received a topical sensitization dose on the arm at the initial visit, and then received a topical treatment dose applied to a lesion during the first 2 herpes labialis episodes occurring at least 2 weeks after the sensitization dose. Participants were randomized 1:1:1 to receive dimethyl sulfoxide alone (placebo), 2.0% SADBE sensitization and 0.5% SADBE treatment doses, or 2.0% SADBE sensitization, 0.2% SADBE treatment doses. The study was approved by Partners Human Research Committee institutional review board, and all participants provided their written informed consent (clinicaltrials.gov identification No. NCT01971385). Results. Fifty-four patients were enrolled into the study; 43 patients had at least 1 form of contact (either in person or by phone) with research staff following the sensitizing dose and were included in the efficacy data analysis. The data analyzed involves 9 males and 34 females.\nOne planned primary end point was days to the next herpes labialis outbreak after the last treatment dose. […] Thus, we analyzed time to next outbreak after the sensitization dose. Data from patients who never experienced a first outbreak following sensitization were censored on the last available follow-up date and Kaplan-Meier time-to-event curves were estimated and graphed (FIG. 3). The median time to event for the placebo group was 40 days versus more than 122 days for the 2.0% SADBE group, which difference was highly significant (P=0.009)."}, "[2]": {"assay": "Residual SADBE and SAMBE in patches after 12 hours on mini-pigs", "format": "in vivo, Gottingen miniswine", "settings": "for SADBE as % of expected (remaining in patch): 12 hours on mini-pigs", "method": "(§1) Patches were removed from the pigs at the indicated times and immediately the reservoir portion of the patch was cut out and placed in a 50 ml tube with 10 ml of DMSO. The tubes of DMSO with patches were transported to the Squarex laboratory, shaken at 200 rpm for 30 minutes to overnight, and then the DMSO from each tube was placed in an injection vial and analyzed for SADBE content by HPLC on a C18 column with the program SADBE3-50 ul. SADBE elutes in this program at about 24.0 minutes and absorbs at 255 nm, so the area of the 24.0 min peak at 255 nm was used to quantify SADBE. The SADBE degradation product squaric acid monobutyl ester (SAMBE) was also quantified by 255 nm area under the curve at the elution time of 12.7 minutes."}, "[3]": {"assay": "HPLC analysis of test article vials and patch controls in air (mini-pig study)", "format": "physicochemical", "method": "Squaric acid dibutyl ester (SADBE) at 2% (w/v) concentration in dimethylsulfoxide (DMSO) was added to a skin patch for dermal dosing of SADBE to test for a delayed-type hypersensitivity response or other skin irritation. In the laboratories of Squarex HPLC analysis was conducted to analyze for SADBE content, for analysis of the dose formulation prepared by APS and to determine stability of the test article in the dermal patches during the application time and to test for residual SADBE in the dermal patches after 12 hours applied to the animals.\nThe skin patches consisted of a polymer backing layer similar to 3M 9916 polyester nonwoven backing layer with adhesive, 3M 9733 polyester film laminate barrier layer, and Precision Fabrics Group 0700-00010 polyester gauze layer. The gauze was heat sealed to the barrier layer. The gauze patch area was 1.53 cm^2.\nas §1, with “The” for “Patches were removed from the pigs at the indicated times and immediately the reservoir portion of the patch was cut out and placed in a 50 ml tube with 10 ml of DMSO. The”\nThe test article vials of 2%, 6%, and 18% SADBE dissolved in DMSO complied with specifications and had the predicted concentrations of SADBE at 24 hours after preparation.\nThe results indicated the SADBE was stable for more than 12 hours in the patches when not exposed to animal skin. There was no apparent loss of SADBE or conversion of SADBE to SAMBE."}, "[4]": {"settings": "2% patch control, 20 ul, >12 hours in air"}, "[5]": {"settings": "2% vial, SADBE in DMSO, 24 hours after preparation"}, "[6]": {"settings": "6% patch control, 20 ul, >12 hours in air"}, "[7]": {"settings": "6% vial, SADBE in DMSO, 24 hours after preparation"}, "[8]": {"settings": "18% vial, SADBE in DMSO, 24 hours after preparation"}},
  "note": "Where “and” joins values, the source holds several entries; their conditions need not be identical. Equal values may be shown once.",
  "data": [
    {"compound": "CCCCOc1c(OCCCC)c(=O)c1=O", "note": "[SADBE, squaric acid dibutyl ester]", "values": [
      {"measurement": "Average erythema score weeks 0-3", "setting": "pig skin; 20 ul of 2% SADBE, 1 hour exposure", "result": 0},
      {"measurement": "Average erythema score weeks 0-3", "setting": "pig skin; 20 ul of 2% SADBE, 3 hours exposure", "result": 0.83},
      {"measurement": "Average erythema score weeks 0-3", "setting": "pig skin; 20 ul of 2% SADBE, 6 hours exposure", "result": 0.92},
      {"measurement": "Average erythema score weeks 0-3", "setting": "pig skin; 20 ul of 2% SADBE, 24 hours exposure", "result": 1.5},
      {"measurement": "Average erythema score weeks 0-3", "setting": "pig skin; 50 ul of 2% SADBE, 1 hour exposure", "result": 1.5},
      {"measurement": "Average erythema score weeks 0-3", "setting": "pig skin; 50 ul of 2% SADBE, 3 hours exposure", "result": 2.125},
      {"measurement": "Average erythema score weeks 0-3", "setting": "pig skin; 50 ul of 2% SADBE, 6 hours exposure", "result": 1.92},
      {"measurement": "Average erythema score weeks 0-3", "setting": "pig skin; 50 ul of 2% SADBE, 24 hours exposure", "result": 2.5},
      {"measurement": "Average erythema score weeks 0-3", "setting": "pig skin; 80 ul of 2% SADBE, 1 hour exposure", "result": 1.375},
      {"measurement": "Average erythema score weeks 0-3", "setting": "pig skin; 80 ul of 2% SADBE, 3 hours exposure", "result": 1.625},
      {"measurement": "Average erythema score weeks 0-3", "setting": "pig skin; 80 ul of 2% SADBE, 6 hours exposure", "result": 1.25},
      {"measurement": "Average erythema score weeks 0-3", "setting": "pig skin; 80 ul of 2% SADBE, 24 hours exposure", "result": 2.25},
      {"measurement": "Average high erythema score", "setting": "pig skin; Week 1", "result": 1.05},
      {"measurement": "Average high erythema score", "setting": "pig skin; Week 2", "result": 2.60},
      {"measurement": "Average high erythema score", "setting": "pig skin; Week 3", "result": 1.73},
      {"measurement": "Average high erythema score", "setting": "pig skin; Week 4", "result": 0.00},
      {"measurement": "edema at drug application site", "setting": "pig skin; any site, any time after patch application and removal", "result": "No pigs had edema"},
      {"measurement": "Average high erythema score", "setting": "pig skin; at patch removal", "result": 0.63},
      {"measurement": "median time to next herpes labialis outbreak after the sensitization dose", "setting": "[1]; 2.0% SADBE sensitization dose on arm, Kaplan-Meier, placebo 40 days, P=0.009", "result": "more than 122 days"},
      {"measurement": "adverse event: itching and redness at the sensitization site", "setting": "[1]; 2.0% SADBE, placebo 2 patients", "result": 13, "unit": "patients"},
      {"measurement": "adverse event: autosensitization dermatitis", "setting": "[1]; exposed to the SADBE sensitization dose for 24 hours", "result": 1, "unit": "patient"},
      {"measurement": "tolerability", "setting": "[1]; overall, patients", "result": "well tolerated"},
      {"measurement": "patients who did not experience another outbreak after sensitization", "setting": "[1]; patients who received 2.0% SADBE for sensitization", "result": "16 of 28"},
      {"measurement": "SADBE apparently transferred into the mini pig skin", "setting": "[2]; 2% patches, 12 hours", "result": "about 89%"},
      {"measurement": "SADBE as % of expected (remaining in patch)", "setting": "[2]; 2% patches, individual animals", "result": "7.0% and 14.6%"},
      {"measurement": "SADBE as % of expected (remaining in patch)", "setting": "[2]; 6% patches, average of 2 animals", "result": "35% and 35.4%"},
      {"measurement": "SADBE as % of expected (remaining in patch)", "setting": "[2]; 6% patches, individual animals", "result": "29.9% and 40.8%"},
      {"measurement": "SADBE as % of expected (remaining in patch)", "setting": "[2]; 18% patches, average of 2 animals", "result": "65% and 65.5%"},
      {"measurement": "SADBE as % of expected (remaining in patch)", "setting": "[2]; 18% patches, individual animals", "result": "65.2% and 65.8%"},
      {"measurement": "% of expected SADBE", "setting": "[3]; [4]", "result": 97.7, "unit": "%"},
      {"measurement": "SAMBE as percent of SADBE", "setting": "[3]; [4]", "result": 0.86, "unit": "%"},
      {"measurement": "% of expected SADBE", "setting": "[3]; [5]", "result": 100.8, "unit": "%"},
      {"measurement": "SAMBE as percent of SADBE", "setting": "[3]; [5]", "result": 0.88, "unit": "%"},
      {"measurement": "% of expected SADBE", "setting": "[3]; [6]", "result": 96.8, "unit": "%"},
      {"measurement": "SAMBE as percent of SADBE", "setting": "[3]; [6]", "result": 0.96, "unit": "%"},
      {"measurement": "% of expected SADBE", "setting": "[3]; [7]", "result": 97.5, "unit": "%"},
      {"measurement": "SAMBE as percent of SADBE", "setting": "[3]; [7]", "result": 0.96, "unit": "%"},
      {"measurement": "% of expected SADBE", "setting": "[3]; [8]", "result": 104.4, "unit": "%"},
      {"measurement": "SAMBE as percent of SADBE", "setting": "[3]; [8]", "result": 1.00, "unit": "%"},
      {"measurement": "time SADBE was stable in the patches", "setting": "[3]; patches not exposed to animal skin, no apparent loss or conversion to SAMBE", "result": "more than 12 hours"}
    ]}
  ]
}
